Reference: ChEMBL document CHEMBL1137276, “Discovery of potent, selective, and orally bioavailable oxadiazole-based dipeptidyl peptidase IV inhibitors” (Bioorg Med Chem Lett, 2006)

Columns and labels:
[1] = target: Dipeptidyl peptidase 2 (Homo sapiens, UniProt Q9UHL4); test: Inhibition of QPP
[2] = target: Dipeptidyl peptidase 4 (Homo sapiens, UniProt P27487); test: Inhibition of DPP4
[3] = target: Dipeptidyl peptidase 9 (Homo sapiens, UniProt Q86TI2); test: Inhibition of DPP9
[4] = target: Dipeptidyl peptidase 8 (Homo sapiens, UniProt Q6V1X1); test: Inhibition of DPP8
[5] = Oral bioavailability in rat at 1 mg/kg, iv and 2 mg/kg, po; type: ADME, organism-based; details: in vivo
[6] = target: Voltage-gated inwardly rectifying potassium channel KCNH2 (Homo sapiens, UniProt Q12809); test: Inhibition of hERG potassium channel; type: toxicity
[7] = Half life in rat at 1 mg/kg, iv and 2 mg/kg, po; type: ADME, organism-based; details: in vivo
[8] = Plasma clearance in rat at 1 mg/kg, iv and 2 mg/kg, po; type: ADME, organism-based
[9] = species on record: Homo sapiens; test: Selectivity for DPP4 over QPP
[10] = Oral bioavailability in dog; type: ADME, organism-based, Canis lupus familiaris; details: in vivo
[11] = Half life in dog; type: ADME, organism-based, Canis lupus familiaris; details: in vivo

Chain of Dipeptidyl peptidase 9 (Q86TI2 whole entry): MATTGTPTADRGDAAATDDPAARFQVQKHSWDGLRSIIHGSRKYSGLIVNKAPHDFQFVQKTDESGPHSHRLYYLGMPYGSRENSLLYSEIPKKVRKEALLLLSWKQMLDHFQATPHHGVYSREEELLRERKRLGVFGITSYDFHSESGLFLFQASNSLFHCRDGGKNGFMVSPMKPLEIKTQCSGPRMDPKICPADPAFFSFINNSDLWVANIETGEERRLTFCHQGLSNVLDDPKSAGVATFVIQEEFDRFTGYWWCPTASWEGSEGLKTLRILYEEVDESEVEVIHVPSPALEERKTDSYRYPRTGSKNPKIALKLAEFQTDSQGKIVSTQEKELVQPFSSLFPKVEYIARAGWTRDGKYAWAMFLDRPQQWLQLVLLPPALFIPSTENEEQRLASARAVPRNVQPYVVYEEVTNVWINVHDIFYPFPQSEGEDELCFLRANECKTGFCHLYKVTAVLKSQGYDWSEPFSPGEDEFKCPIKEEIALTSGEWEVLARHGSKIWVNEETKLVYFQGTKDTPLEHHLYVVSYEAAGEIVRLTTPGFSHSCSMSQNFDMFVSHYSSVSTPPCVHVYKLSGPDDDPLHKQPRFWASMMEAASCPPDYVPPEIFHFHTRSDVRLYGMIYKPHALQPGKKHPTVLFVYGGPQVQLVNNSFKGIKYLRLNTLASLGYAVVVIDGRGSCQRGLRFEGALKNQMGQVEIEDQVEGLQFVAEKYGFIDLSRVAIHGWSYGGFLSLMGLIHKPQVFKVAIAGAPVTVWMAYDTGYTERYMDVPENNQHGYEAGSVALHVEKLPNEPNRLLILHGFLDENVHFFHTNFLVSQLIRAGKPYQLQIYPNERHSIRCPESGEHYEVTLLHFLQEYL
Chain of Dipeptidyl peptidase 4 (P27487 whole entry): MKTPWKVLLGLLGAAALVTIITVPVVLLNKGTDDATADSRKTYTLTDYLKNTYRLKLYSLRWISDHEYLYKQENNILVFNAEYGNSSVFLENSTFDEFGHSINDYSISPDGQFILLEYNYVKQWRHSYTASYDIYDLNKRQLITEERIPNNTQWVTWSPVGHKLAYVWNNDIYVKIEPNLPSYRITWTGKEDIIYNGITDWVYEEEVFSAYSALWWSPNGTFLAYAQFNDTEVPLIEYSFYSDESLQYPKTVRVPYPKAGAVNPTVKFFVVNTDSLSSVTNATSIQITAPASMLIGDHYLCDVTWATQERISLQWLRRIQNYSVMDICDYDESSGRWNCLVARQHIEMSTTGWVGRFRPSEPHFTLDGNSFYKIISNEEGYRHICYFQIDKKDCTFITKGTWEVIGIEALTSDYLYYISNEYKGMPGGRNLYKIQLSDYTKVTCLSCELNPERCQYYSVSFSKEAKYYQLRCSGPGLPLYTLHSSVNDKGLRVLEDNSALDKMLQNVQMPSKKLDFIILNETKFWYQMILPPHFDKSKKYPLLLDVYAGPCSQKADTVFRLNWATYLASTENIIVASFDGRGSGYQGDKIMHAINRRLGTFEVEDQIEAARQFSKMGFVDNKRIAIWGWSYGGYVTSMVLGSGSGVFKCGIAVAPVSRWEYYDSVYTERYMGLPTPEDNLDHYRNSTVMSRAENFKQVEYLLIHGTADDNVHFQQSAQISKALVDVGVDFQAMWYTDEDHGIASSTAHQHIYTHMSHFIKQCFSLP
Chain of Dipeptidyl peptidase 8 (Q6V1X1 whole entry): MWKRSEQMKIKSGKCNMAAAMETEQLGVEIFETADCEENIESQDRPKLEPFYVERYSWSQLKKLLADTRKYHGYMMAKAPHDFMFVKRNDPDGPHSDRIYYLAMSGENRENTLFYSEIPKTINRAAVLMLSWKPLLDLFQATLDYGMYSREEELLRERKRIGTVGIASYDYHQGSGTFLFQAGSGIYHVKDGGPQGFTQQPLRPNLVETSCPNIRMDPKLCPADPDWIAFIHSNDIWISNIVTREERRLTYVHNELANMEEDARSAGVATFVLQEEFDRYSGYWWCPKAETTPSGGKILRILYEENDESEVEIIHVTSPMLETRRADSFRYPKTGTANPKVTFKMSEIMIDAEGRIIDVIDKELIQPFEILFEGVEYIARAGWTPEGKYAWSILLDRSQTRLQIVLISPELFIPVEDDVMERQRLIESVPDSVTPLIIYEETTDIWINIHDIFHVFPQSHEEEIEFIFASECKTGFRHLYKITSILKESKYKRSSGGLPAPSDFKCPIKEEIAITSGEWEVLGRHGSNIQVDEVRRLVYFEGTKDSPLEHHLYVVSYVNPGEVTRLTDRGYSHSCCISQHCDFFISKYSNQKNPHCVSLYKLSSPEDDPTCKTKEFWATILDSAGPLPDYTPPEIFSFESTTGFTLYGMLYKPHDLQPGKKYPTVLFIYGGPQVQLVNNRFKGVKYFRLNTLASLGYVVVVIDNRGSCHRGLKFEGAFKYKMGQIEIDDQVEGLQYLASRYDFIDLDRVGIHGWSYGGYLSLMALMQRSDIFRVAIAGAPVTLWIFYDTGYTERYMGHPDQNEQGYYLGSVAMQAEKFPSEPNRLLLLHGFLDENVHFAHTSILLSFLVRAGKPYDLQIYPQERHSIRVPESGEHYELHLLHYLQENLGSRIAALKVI
Chain of Voltage-gated inwardly rectifying potassium channel KCNH2 (Q12809 whole entry): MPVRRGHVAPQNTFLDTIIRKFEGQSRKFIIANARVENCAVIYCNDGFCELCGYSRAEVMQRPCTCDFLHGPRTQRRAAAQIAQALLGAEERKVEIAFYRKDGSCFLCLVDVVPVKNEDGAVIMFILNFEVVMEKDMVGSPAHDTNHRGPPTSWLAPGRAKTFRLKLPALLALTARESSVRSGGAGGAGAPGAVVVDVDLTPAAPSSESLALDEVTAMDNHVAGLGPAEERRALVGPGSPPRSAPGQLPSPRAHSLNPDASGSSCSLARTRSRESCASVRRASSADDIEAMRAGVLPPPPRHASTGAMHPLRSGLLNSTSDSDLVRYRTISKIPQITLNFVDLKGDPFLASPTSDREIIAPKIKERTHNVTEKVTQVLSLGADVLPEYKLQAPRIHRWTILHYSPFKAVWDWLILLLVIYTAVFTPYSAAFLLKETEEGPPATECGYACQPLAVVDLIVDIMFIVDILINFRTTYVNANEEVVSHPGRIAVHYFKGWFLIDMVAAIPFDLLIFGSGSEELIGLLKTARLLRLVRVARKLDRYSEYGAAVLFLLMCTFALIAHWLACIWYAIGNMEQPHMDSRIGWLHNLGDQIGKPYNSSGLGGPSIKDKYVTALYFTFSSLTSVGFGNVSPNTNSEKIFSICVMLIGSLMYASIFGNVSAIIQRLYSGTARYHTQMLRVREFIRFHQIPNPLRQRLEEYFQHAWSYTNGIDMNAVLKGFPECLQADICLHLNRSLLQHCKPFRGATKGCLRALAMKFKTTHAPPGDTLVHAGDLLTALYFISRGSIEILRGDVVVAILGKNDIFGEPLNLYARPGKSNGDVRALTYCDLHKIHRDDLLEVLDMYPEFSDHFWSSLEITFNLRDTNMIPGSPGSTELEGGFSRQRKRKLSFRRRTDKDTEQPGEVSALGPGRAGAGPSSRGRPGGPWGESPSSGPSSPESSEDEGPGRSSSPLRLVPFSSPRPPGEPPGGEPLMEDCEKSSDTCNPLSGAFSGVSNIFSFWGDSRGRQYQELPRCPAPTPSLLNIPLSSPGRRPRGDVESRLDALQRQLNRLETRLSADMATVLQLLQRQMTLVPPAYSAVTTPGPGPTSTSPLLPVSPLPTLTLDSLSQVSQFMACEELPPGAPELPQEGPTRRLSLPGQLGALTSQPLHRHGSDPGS

| SMILES | IC50 [1] | IC50 [2] | IC50 [3] | IC50 [4] | bioavailability [5] | IC50 [6] | half-life [7] | clearance [8] | Ratio IC50 [9] | bioavailability [10] | half-life [11] |
| --- | --- | --- | --- | --- | --- | --- | --- | --- | --- | --- | --- |
| C[C@H](c1nc(-c2ccc(S(=O)(=O)C(F)(F)F)cc2)no1)[C@H](N)C(=O)N1CCCC1 | 24.4 µM | 0.33 µM | > 100 µM | > 100 µM |  |  |  |  |  |  |  |
| C[C@H](c1nc(-c2ccccc2OC(F)(F)F)no1)[C@H](N)C(=O)N1CCCC1 | 2.5 µM | 12.4 µM | > 100 µM | > 100 µM |  |  |  |  |  |  |  |
| C[C@H](c1nc(-c2ccc(Br)cc2Cl)no1)[C@H](N)C(=O)N1CCCC1 | 1.3 µM | 0.16 µM | > 100 µM | > 100 µM |  |  |  |  |  |  |  |
| C[C@H](c1nc(-c2ccc(NS(C)(=O)=O)cc2Cl)no1)[C@H](N)C(=O)N1CCC(F)(F)C1 | 0.16 µM | 0.019 µM | > 100 µM | > 100 µM |  |  |  |  |  |  |  |
| C[C@H](c1nc(-c2ccc(NS(C)(=O)=O)cc2)no1)[C@H](N)C(=O)N1CCCC1 | 5.4 µM | 0.52 µM | > 100 µM | > 100 µM |  |  |  |  |  |  |  |
| C[C@H](c1nc(-c2ccc(Cl)cc2Cl)no1)[C@H](N)C(=O)N1CCCC1.O=C(O)C(F)(F)F |  |  | > 100 µM | > 100 µM | 35% | 36.7 µM | 2.71 h | 13.8 mL/min/kg |  |  |  |
| C[C@H](c1nc(-c2ccc(OC(F)(F)F)cc2)no1)[C@H](N)C(=O)N1CCCC1 | 5.2 µM | 1.79 µM | > 100 µM | > 100 µM |  |  |  |  |  |  |  |
| C[C@H](c1nc(-c2ccccc2C(F)F)no1)[C@H](N)C(=O)N1CCCC1 | 1 µM | 1.82 µM | > 100 µM | > 100 µM |  |  |  |  |  |  |  |
| C[C@H](c1nc(-c2ccc(S(C)(=O)=O)cc2F)no1)[C@H](N)C(=O)N1CCCC1 | 14.1 µM | 0.043 µM | > 100 µM | > 100 µM |  |  |  |  | > 320 |  |  |
| CS(=O)(=O)c1ccc(-c2noc([C@@H](CC3CC3)[C@H](N)C(=O)N3CC[C@H](F)C3)n2)c(Cl)c1 |  |  | > 100 µM | > 100 µM |  |  |  |  |  |  |  |
| C[C@H](c1nc(-c2cc(Cl)cc(Cl)c2)no1)[C@H](N)C(=O)N1CCCC1 | 2.5 µM | 7.36 µM | > 100 µM | > 100 µM |  |  |  |  |  |  |  |
| C[C@H](c1nnc(-c2ccc(Cl)cc2Cl)o1)[C@H](N)C(=O)N1CCCC1 | 0.85 µM | 0.56 µM | > 100 µM | > 100 µM |  |  |  |  |  |  |  |
| CS(=O)(=O)c1ccc(-c2noc([C@@H](CC3CC3)[C@H](N)C(=O)N3CC[C@H](F)C3)n2)c(F)c1.O=C(O)C(F)(F)F |  |  | > 100 µM | > 100 µM | 36% | 58.5 µM | 1.3 h | 18.7 mL/min/kg |  | 95% | 1.75 h |
| C[C@H](c1nc(-c2ccccc2Cl)no1)[C@H](N)C(=O)N1CCCC1 | 2.2 µM | 0.99 µM | > 100 µM | > 100 µM |  |  |  |  |  |  |  |
| C[C@H](c1nc(-c2ccccc2)no1)[C@H](N)C(=O)N1CCCC1 | 5.7 µM | 19.7 µM | > 100 µM | > 100 µM |  |  |  |  |  |  |  |
| CS(=O)(=O)c1ccc(-c2noc([C@@H](CC3CC3)[C@H](N)C(=O)N3CC[C@H](F)C3)n2)cc1.O=C(O)C(F)(F)F | 20.4 µM | 0.052 µM | > 100 µM | > 100 µM | 49% |  | 1.8 h | 11.2 mL/min/kg |  |  |  |
| C[C@H](c1nc(-c2ccc(Cl)cc2Cl)co1)[C@H](N)C(=O)N1CCCC1 | 1.05 µM | 1.83 µM | > 100 µM | > 100 µM |  |  |  |  |  |  |  |
| C[C@H](c1nc(-c2ccc(C(F)(F)F)cc2)no1)[C@H](N)C(=O)N1CCCC1 | 6 µM | 1.61 µM | > 100 µM | > 100 µM |  |  |  |  |  |  |  |

| SMILES | IC50 [1] | IC50 [2] | IC50 [3] | IC50 [4] | bioavailability [5] | IC50 [6] | half-life [7] | clearance [8] | Ratio IC50 [9] | bioavailability [10] | half-life [11] |
| --- | --- | --- | --- | --- | --- | --- | --- | --- | --- | --- | --- |
| Cc1cc(S(C)(=O)=O)ccc1-c1noc([C@@H](CC2CC2)[C@H](N)C(=O)N2CC[C@H](F)C2)n1 | 2.92 µM | 0.031 µM | > 100 µM | > 100 µM |  |  |  |  |  |  |  |
| C[C@H](c1nc(-c2ccccc2C(F)(F)F)no1)[C@H](N)C(=O)N1CCCC1 | 1.8 µM | 4.82 µM | > 100 µM | > 100 µM |  |  |  |  |  |  |  |
| C[C@H](c1noc(-c2ccc(Cl)cc2Cl)n1)[C@H](N)C(=O)N1CCCC1 | 4.2 µM | 1.21 µM | > 100 µM | > 100 µM |  |  |  |  |  |  |  |
| C[C@H](c1nc(-c2ccc(Cl)cc2)no1)[C@H](N)C(=O)N1CCCC1 | 3.8 µM | 3.82 µM | > 100 µM | > 100 µM |  |  |  |  |  |  |  |
| C[C@H](c1nc(-c2ccc(F)cc2F)no1)[C@H](N)C(=O)N1CCCC1 | 8.1 µM | 4.59 µM | > 100 µM | > 100 µM |  |  |  |  |  |  |  |
| C[C@H](c1nc(-c2ccc(S(N)(=O)=O)cc2)no1)[C@H](N)C(=O)N1CCCC1 | 26.8 µM | 0.19 µM | > 100 µM | > 100 µM |  |  |  |  |  |  |  |
| C[C@H](c1n[nH]c(-c2ccc(Cl)cc2Cl)n1)[C@H](N)C(=O)N1CCCC1 | 5.41 µM | 3.05 µM | > 100 µM | > 100 µM |  |  |  |  |  |  |  |
| C[C@H](c1nc(-c2ccc(NS(C)(=O)=O)cc2Cl)no1)[C@H](N)C(=O)N1CCCC1 | 1.4 µM | 0.008 µM | > 100 µM | > 100 µM |  |  |  |  |  |  |  |
| C[C@H](c1nc(-c2ccc(S(C)(=O)=O)cc2)no1)[C@H](N)C(=O)N1CCCC1 |  |  | > 100 µM | > 100 µM |  |  |  |  |  |  |  |
| CC(C)C[C@H](c1nc(-c2ccc(S(C)(=O)=O)cc2Cl)no1)[C@H](N)C(=O)N1CC[C@H](F)C1 | 3.7 µM | 0.013 µM | > 100 µM | > 100 µM |  |  |  |  |  |  |  |
| C[C@H](c1nc(-c2ccc(NS(C)(=O)=O)cc2Cl)no1)[C@H](N)C(=O)N1CC[C@H](F)C1 | 2.57 µM | 0.019 µM | > 100 µM | > 100 µM |  |  |  |  |  |  |  |
| C[C@H](c1nc(-c2ccc(F)cc2Cl)no1)[C@H](N)C(=O)N1CCCC1 | 3 µM | 0.83 µM | > 100 µM | > 100 µM |  |  |  |  |  |  |  |
| CS(=O)(=O)c1ccc(-c2noc([C@@H](CCO)[C@H](N)C(=O)N3CC[C@H](F)C3)n2)c(Cl)c1 |  |  | > 100 µM | > 100 µM |  |  |  |  |  |  |  |
| C[C@H](c1nc(-c2ccc(S(C)(=O)=O)cc2Cl)no1)[C@H](N)C(=O)N1CCCC1 |  |  | > 100 µM | > 100 µM | 27% |  | 0.82 h | 6 mL/min/kg |  |  |  |
| C[C@H](c1nc(-c2ccc(S(C)(=O)=O)cc2Cl)no1)[C@H](N)C(=O)N1CC[C@H](F)C1 |  |  | > 100 µM | > 100 µM |  |  |  |  |  |  |  |
| C[C@H](c1nc(-c2cccc(C(F)(F)F)c2)no1)[C@H](N)C(=O)N1CCCC1 | 4.3 µM | 15.6 µM | > 100 µM | > 100 µM |  |  |  |  |  |  |  |
| C[C@H](c1nc(-c2ccccc2F)no1)[C@H](N)C(=O)N1CCCC1 | 4.5 µM | 4.79 µM | > 100 µM | > 100 µM |  |  |  |  |  |  |  |
| C[C@H](c1nc(-c2ccc(NS(C)(=O)=O)cc2Cl)no1)[C@H](N)C(=O)N1CC[C@@H](F)C1 | 1.7 µM | 0.019 µM | > 100 µM | > 100 µM |  |  |  |  |  |  |  |
